Source: patent publication US4025556A, “Quaternary ammonium-hydroxyaryl compounds” (Ciba-Geigy AG, priority 1967, dated 1977)

Key:
Type in all cases: cell-based
[1] = tested on: Escherichia coli; test: Minimal inhibitory concentration (MIC), gradient plate test, bacteriostasis; details: brain heart infusion agar, 24 hours at 37° C
Text: (§1) Measuring the minimal inhibitory concentration (MIC) towards bacteria and fungi in the gradient plate test
(§2) The compounds of the formula (1) in suitable formulations (for example as solutions in dimethylsulphoxide) of certain concentrations are mixed with warm brain heart infusion agar (bacteria) and Mycophil-Agar (fungi). The liquid mixtures are poured over a solidified, wedge-shaped basic agar layer and likewise allowed to solidify.
(§3) The test organisms are then applied by means of a Pasteur pipette in lines at right angles to the gradient. After an incubation period of 24 hours at 37° C. (bacteria) and 72 hours at 30° C. (fungi) the length of the germs grown on the inoculation line is measured and expressed in parts per million of active substance.

[2] = tested on: Staphylococcus aureus; test: as above; details: brain heart infusion agar, 24 hours at 37° C
Text: as §1, §2, §3

[3] = tested on: Aspergillus niger; test: Minimal inhibitory concentration (MIC), gradient plate test, fungistasis; details: Mycophil-Agar, 72 hours at 30° C
Text: as §1, §2, §3

[4] = tested on: Trichophyton mentagrophytes; test: as above; details: Mycophil-Agar, 72 hours at 30° C
Text: as §1, §2, §3

[5] = tested on: Staphylococcus aureus; test: Antibacterial properties of impregnated paper (agar plate, inhibitory zone and growth); details: paper with 1% of active substance, 24 hours at 37° C
Text: (§4) Crude paper, which consists of 90% of bleached sulphite cellulose and 10% of birch pulp, is impregnated in a sizing press with a 2.5% solution of the compound of the formula (11) in methanol+water 2:1 to a weight increase of 40%.
(§5) The dried paper contains 1% of active substance referred to its original weight.
To test its antibacterial properties round blanks of 10 mm diameter of the impregnated paper are placed on brain heart infusion agar plates previously inoculated with Staphylococcus aureus, and the plates are then incubated for 24 hours at 37° C.
(§6) The evaluation extends, on one hand, to the inhibitory zone (IZ in mm) around the paper blanks and, on the other hand, to the microscopically discernible growth (G in %) underneath and/or on the blanks: […]

[6] = tested on: Aspergillus niger; test: Fungicidal activity of impregnated paper (agar plate, inhibitory zone and growth); details: paper with 1% of active substance, 72 hours at 30° C
Protocol: as §4, §5
For testing its fungicidal activity round blanks of 25 mm diameter are placed on Mycophil-Agar plates and inoculated with Aspergillus niger, and the plates are incubated for 72 hours at 30° C.
as §6

[7] = tested on: Aspergillus niger; test: Activity of impregnated fabrics against fungi (agar plate, inhibitory zone and growth)
Protocol: (§7) Samples of C. 100 g each of cotton creton are impregnated on a padder with a 1% solution of one of the compounds of the formula (1) in isopropanol at 20° C and then squeezed to a weight increase of 100%.
(§8) Samples of 100 g each of wool cheviot were treated in an identical manner.
(§9) After having been dried at 30° to 40° C. the fabrics contain 1% of active substance referred to their own weight.
To test the activity against fungi round blanks of 25 mm diameter are placed on beerwort agar plates and then inoculated with Aspergillus niger, and the plates are then incubated for 72 hours at 30° C.
(§10) The evaluation extends, on one hand, to the inhibitory zones (IZ in mm) around the blanks and, on the other hand, on the growth (G in %) detected under a microscope underneath and/or on the fabric: […]

[8] = tested on: Rhizopus nigricans; test: Minimal inhibitory concentration (MIC), dilution test, fungistasis; details: beerwort solution, 72 hours at 30° C
Protocol: (§11) Measuring the minimal inhibitory concentration (MIC) against bacteria and fungi in the dilution test
(§12) The minimal inhibitory concentration (MIC) is measured by a test derived from standardized methods which makes available an approximation to absolute minimal inhibitory values of an active substance.
(§13) A solution of 0.4% and 0.12% strength each in dimethylsulphoxide is prepared with the active substances. 0.25 ml of each of these solutions is added to 9.75 ml of sterile brain heart infusion broth (bacteria) and beerwort solution (fungi) respectively. By continual dilution to 10 times the volume two series are obtained which are combined and thereby converted into the following continuous dilution series:
(§14) 100, 30, 10, 3, 1 . . . part per million of active substance.
(§15) The solutions are inoculated with the bacterium Staphylococcus aureus and with fungi Aspergillus niger and Rhizopus nigricans respectively. Then incubation is performed for 48 hours at 37° C. (bacteriostasis) with Staphylococcue aureus and for 72 hours at 30° C. (fungistasis)with the fungi.

[9] = tested on: Aspergillus niger; test: as above; details: beerwort solution, 72 hours at 30° C
Protocol: as §11, §12, §13, §14, §15

[10] = tested on: Staphylococcus aureus; test: Minimal inhibitory concentration (MIC), dilution test, bacteriostasis; details: brain heart infusion broth, 48 hours at 37° C
Protocol: as §11, §12, §13, §14, §15

[11] = tested on: Staphylococcus aureus; test: Activity of impregnated fabrics against bacteria (agar plate, inhibitory zone and growth)
Protocol: as §7, §8, §9
To test the activity against bacteria round blanks of 10 mm diameter of the impregnated fabrics, one half of which untreated and the other after having been watered for 24 hours at 29° C., are placed on brain infusion agar plates previously inoculated with Staphylococcus aureus. The plates are then incubated for 24 hours at 37° C.
as §10

[12] = cotton with 1% of active substance, untreated
[13] = wool with 1% of active substance, untreated

Compound | Minimal inhibitory concentration, bacteriostasis, Escherichia coli [1] | Minimal inhibitory concentration, bacteriostasis, Staphylococcus aureus [2] | Minimal inhibitory concentration, fungistasis, Aspergillus niger [3] | Minimal inhibitory concentration, fungistasis, Trichophyton mentagrophytes [4] | inhibitory zone (IZ) [5] | inhibitory zone (IZ) [6] | inhibitory zone (IZ) [7, 12] | inhibitory zone (IZ) ([7]; cotton with 1% of active substance, watered) | inhibitory zone (IZ) [7, 13] | inhibitory zone (IZ) ([7]; wool with 1% of active substance, watered) | Inhibitory values in ppm in fungistasis, Rhizopus nigricans (MIC) [8] | Inhibitory values in ppm in fungistasis, Aspergillus niger (MIC) [9] | Inhibitory values in ppm in bacteriostasis, Staphylococcus aureus (MIC) [10] | inhibitory zone (IZ) [11, 12] | inhibitory zone (IZ) ([11]; cotton with 1% of active substance, watered 24 hours at 29° C) | inhibitory zone (IZ) [11, 13] | inhibitory zone (IZ) ([11]; wool with 1% of active substance, watered 24 hours at 29° C)
CCCCCCCCCCCC[N+](CCO)(CCO)Cc1ccccc1.[O-]c1cccc2cccnc12 [L] | 20 ppm | 3 ppm | 6 ppm | 6 ppm |  |  |  |  |  |  |  |  |  |  |  |  | 
benzyl-bis-(2-hydroxyethyl)-dodecyl ammonium pentachlorophenolate |  |  |  |  | 2.5 mm | 1 mm | 7 mm | 4 mm | 0 mm | 0 mm | 10 ppm | 10 ppm | 10 ppm | 6 mm | 5 mm | 6 mm | 3 mm
